Drawing on PubChem BioAssay (NCI), this text covers GI50 and TGI for eight compounds.

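Tested at 5 concentrations; 48 h exposure; 96-well plates; endpoints linearly interpolated, else capped at highest concentration. Abbreviation: GI50, concentration required for 50% inhibition of growth. At the TGI there is no net growth.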

A word on the GI50: it is the concentration at which growth is held to half of that of the control. Usually TGI stands for the concentration at which net growth stops. The low end stands for more potent growth arrest, the high end for less potent growth arrest.

Some test systems named below: SF-539 CNS; HCT-116 colon; OVCAR-4 ovarian; UACC-62 melanoma; IGROV1 ovarian; SF-295 CNS; PC-3 prostate; NCI-H522 lung; NCI-H226 lung; MALME-3M melanoma.
Holding throughout (assay): DTP human tumour cell line panel, 48 h

`COc1cc(C(=O)c2cc(C)c3[nH]c4ccc(O)cc4c3c2C)cc(OC)c1OC`: the 50% growth inhibitory concentration (GI50) in the test on SF-539 CNS is below 0.0113 µM; in the test with HCT-116 colon, below 0.01 µM; with OVCAR-4 ovarian, 1.05 µM; in the test with UACC-62 melanoma, below 0.01 µM; in the test on IGROV1 ovarian, 0.0169 µM; in the test with SF-295 CNS it was below 0.01 µM. Moreover, the concentration for 50% growth inhibition (GI50) in the test on PC-3 prostate is below 0.02 µM; in the test with NCI-H522 lung, below 0.01 µM; in the test on NCI-H226 lung, 0.0943 µM; in the test with MALME-3M melanoma it was 0.0347 µM. Besides, the concentration for total growth inhibition (TGI) is above 100 µM in the test with OVCAR-4 ovarian; above 100 µM with UACC-62 melanoma; 20.5 µM in the test on IGROV1 ovarian; 0.326 µM with SF-295 CNS; above 100 µM in the test with PC-3 prostate; 2.21 µM in the test with NCI-H522 lung. Also, the values for the total growth inhibition concentration (TGI) in the test with NCI-H226 lung and with MALME-3M melanoma were above 81.3 µM and above 100 µM, respectively.

For the compound `Clc1ccc(C2ON=C(c3ccccc3)N2C23CC4CC(CC(C4)C2)C3)cc1` (configuration not stated), the TGI in the test with SF-539 CNS, in the test on HCT-116 colon, with OVCAR-4 ovarian, in the test with UACC-62 melanoma, in the test with IGROV1 ovarian and with SF-295 CNS was above 10 µM in each case. Besides, the total growth inhibition concentration (TGI) in the test on PC-3 prostate, in the test on NCI-H522 lung, with NCI-H226 lung and in the test with MALME-3M melanoma was above 10 µM each time.

Turning to `CCc1c(C)nc2sc3c(N)ncnc3c2c1C`, the GI50 in the test with SF-539 CNS, in the test with HCT-116 colon, in the test on OVCAR-4 ovarian, in the test with UACC-62 melanoma, with IGROV1 ovarian and in the test with SF-295 CNS was above 25 µM throughout. Further, the GI50 in the test with PC-3 prostate, in the test with NCI-H522 lung, with NCI-H226 lung and in the test on MALME-3M melanoma was above 25 µM each time. Moreover, the concentration for total growth inhibition (TGI) in the test with SF-539 CNS, with HCT-116 colon, with OVCAR-4 ovarian, with UACC-62 melanoma, in the test with IGROV1 ovarian and in the test on SF-295 CNS was above 25 µM in each case. Besides, the total growth inhibition concentration (TGI) with PC-3 prostate, with NCI-H522 lung, with NCI-H226 lung and with MALME-3M melanoma was above 25 µM each time.

Take `COc1ccc(Nc2ccnc(N3CCN(c4ccnc5cc(Cl)ccc45)CC3)n2)cc1`: the GI50 with SF-539 CNS was 0.968 µM; in the test on HCT-116 colon, 0.485 µM; with OVCAR-4 ovarian, 1.34 µM; in the test on UACC-62 melanoma, 0.292 µM; in the test on IGROV1 ovarian, 0.696 µM; in the test with SF-295 CNS, 0.267 µM. Also, the GI50 with PC-3 prostate was 0.705 µM; with NCI-H522 lung it was 0.321 µM; in the test with NCI-H226 lung, 1.41 µM; in the test with MALME-3M melanoma it was 1.11 µM. In addition, the TGI is 3.26 µM in the test on SF-539 CNS; 3.27 µM with HCT-116 colon; above 100 µM in the test on OVCAR-4 ovarian; 1.43 µM in the test on UACC-62 melanoma; 1.08 µM in the test with SF-295 CNS; 7.25 µM with PC-3 prostate. Also, the TGI with NCI-H522 lung was found to be 1.75 µM; in the test on NCI-H226 lung, 6.09 µM; with MALME-3M melanoma it was 4.65 µM.

As for `Fc1cccc(F)c1C(Nc1nncs1)Nc1nncs1`, the TGI in the test with SF-539 CNS, in the test with HCT-116 colon, in the test with OVCAR-4 ovarian, in the test on UACC-62 melanoma, in the test on IGROV1 ovarian and in the test with SF-295 CNS was above 100 µM throughout. For the same compound, the TGI in the test with PC-3 prostate, with NCI-H522 lung, with NCI-H226 lung and in the test with MALME-3M melanoma was above 100 µM each time.

With `COc1cc(/C=C/c2ccc3c(Br)cc(Br)c(O)c3n2)ccc1O`, the GI50 with SF-539 CNS is 2.29 µM; in the test with HCT-116 colon, 0.532 µM; in the test on OVCAR-4 ovarian, 2.18 µM; in the test with UACC-62 melanoma, 1.67 µM; with IGROV1 ovarian, 1.54 µM; with SF-295 CNS, 0.912 µM. Further, the GI50 with PC-3 prostate is 1.26 µM; with NCI-H522 lung it was 2.36 µM; in the test on NCI-H226 lung, 4.61 µM; in the test with MALME-3M melanoma, 4.81 µM. Besides, the TGI came out at 10.3 µM in the test on SF-539 CNS; 3.7 µM with HCT-116 colon; 11.6 µM in the test on OVCAR-4 ovarian; 5.3 µM in the test on UACC-62 melanoma; 13.6 µM with IGROV1 ovarian; 14.4 µM in the test with SF-295 CNS. Further, the TGI in the test with PC-3 prostate was found to be 15.1 µM; in the test with NCI-H522 lung, 11 µM; in the test with NCI-H226 lung it was 17.4 µM; in the test with MALME-3M melanoma, 18.4 µM.

`FC(F)(F)c1cccc(-c2nn3ncccc3c2-c2ccnc(Nc3ccc4c(c3)OCCO4)n2)c1`: the GI50 was above 25 µM with SF-539 CNS; 9.75 µM with HCT-116 colon; 10.3 µM in the test with OVCAR-4 ovarian; 15 µM in the test on UACC-62 melanoma; 5.38 µM with IGROV1 ovarian; 18.2 µM in the test on SF-295 CNS. Besides, the GI50 was 10.5 µM with PC-3 prostate, 14 µM with NCI-H522 lung, 14.2 µM with NCI-H226 lung and above 25 µM in the test with MALME-3M melanoma. For the same compound, the TGI was above 25 µM with SF-539 CNS; above 25 µM in the test on HCT-116 colon; above 25 µM in the test on OVCAR-4 ovarian; above 25 µM in the test with UACC-62 melanoma; above 22.2 µM in the test with IGROV1 ovarian; above 25 µM with SF-295 CNS. For the same compound, the total growth inhibition concentration (TGI) in the test with PC-3 prostate, with NCI-H522 lung, in the test with NCI-H226 lung and in the test on MALME-3M melanoma was above 25 µM throughout.

As to `COc1cc(-c2nn(-c3cccc(NC(=O)CCN4CCN(Cc5ccccc5)CC4)c3)cc2-c2ccncc2)ccc1Cl`, the GI50 in the test with SF-539 CNS was 1.14 µM; with HCT-116 colon, 0.406 µM; in the test on OVCAR-4 ovarian, 1.8 µM; in the test with UACC-62 melanoma, 1.13 µM; in the test with IGROV1 ovarian it was 0.954 µM; with SF-295 CNS, 0.482 µM. For the same compound, the GI50 in the test with PC-3 prostate was 0.709 µM; in the test on NCI-H522 lung it was 0.359 µM; in the test with NCI-H226 lung, 2.91 µM; in the test with MALME-3M melanoma, 1.01 µM. For the same compound, the total growth inhibition concentration (TGI) worked out at 2.58 µM in the test with SF-539 CNS; 1.75 µM in the test on HCT-116 colon; 41 µM in the test with OVCAR-4 ovarian; 2.7 µM with UACC-62 melanoma; 7.88 µM in the test on IGROV1 ovarian; 1.95 µM in the test on SF-295 CNS. Also, the TGI in the test with PC-3 prostate was 11.6 µM; with NCI-H522 lung, 1.75 µM; in the test with NCI-H226 lung, 47.7 µM; in the test with MALME-3M melanoma it was 2.55 µM.
